Test results from publication PMC7031696 (Cell chemical biology, 2019).
Read-outs that look alike come from different tables or passages of the source.

Key:
[1] = test system: 3D7-MR4 trophozoite parasite-infected RBCs; conditions: 10 × IC50^72h; ref Allman et al., 2016; cited from earlier work
[2] = test system: asynchronous 3D7-A10 parasite cultures; test: Standard 72-h exposure asexual blood stage susceptibility assay (IC50^72h); assay type: cell-based, Plasmodium falciparum; conditions: Plasmodium falciparum, 3D7, 72 h, read-out: Overall (72hr assay) Mean IC50 (IC50^72h)
[3] = test system: Plasmodium falciparum 3D7-A10 parasites; test: Stage specificity assay (8-h exposure of synchronized stages, IC50^8h); assay type: cell-based; conditions: for IC50: Plasmodium falciparum
[4] = test system: 3D7-MR4 trophozoite parasite-infected RBCs; test: Metabolomic profiling (hydrophilic metabolite changes, UHPLC-MS); assay type: cell-based, Plasmodium falciparum

C[C@H]1Cc2c([nH]c3cc(Cl)c(F)cc23)[C@@]2(N1)C(=O)Nc1ccc(Cl)cc12 [KAE609, reference compound]
levels of cAMP [1]: decreased | levels of the deoxyribonucleotides dAMP and dTMP [1]: increased | nucleoside di- and tri-phosphate levels (GDP, UDP, GTP, dATP, dGTP/ATP, dUTP) [1]: decreased | peptide levels (hemoglobin catabolism signature) [1]: decreased peptide levels | IC50 [2]: 0.73 nM | Ratio lowest IC50 8hr/IC50 72hr ([3]; 3D7-A10): 1.5 | overall activity profile (stages on which active) ([3]; 8-h exposures): inactive against rings yet active against early trophozoites and later stages | IC50 ([3]; 3D7, read-out: Early rings IC50 (IC50^8h)): > 1250 nM | IC50 ([3]; 3D7, read-out: Early trophozoites Mean IC50 (IC50^8h)): 3.2 nM | IC50 ([3]; 3D7, read-out: Late rings IC50 (IC50^8h)): > 1250 nM | IC50 ([3]; 3D7, read-out: Late trophozoites Mean IC50 (IC50^8h)): 1.1 nM | IC50 ([3]; 3D7, read-out: Schizonts Mean IC50 (IC50^8h)): 1.2 nM | Log2(fold changes) 3-phosphoglycerate ([4]; metabolite 3-phosphoglycerate, log2 fold change): 0.0100 | Log2(fold changes) 4-Pyridoxic acid ([4]; metabolite 4-Pyridoxic acid, log2 fold change): -0.6000 | Log2(fold changes) 4-aminobutyrate ([4]; metabolite 4-aminobutyrate, log2 fold change): -0.5400 | Log2(fold changes) 4-phosphopantetheine ([4]; metabolite 4-phosphopantetheine, log2 fold change): 0.0000 | Log2(fold changes) 4-phosphopantothenate ([4]; metabolite 4-phosphopantothenate, log2 fold change): -0.1500 | Log2(fold changes) 5-aminopentanoic acid ([4]; metabolite 5-aminopentanoic acid, log2 fold change): 0.0000 | Log2(fold changes) 5-methyl-THF ([4]; metabolite 5-methyl-THF, log2 fold change): 0.0000 | Log2(fold changes) 5-phosphoribosyl-1-pyrophosphate ([4]; metabolite 5-phosphoribosyl-1-pyrophosphate, log2 fold change): -2.9800 | Log2(fold changes) 6-phospho-D-gluconate ([4]; metabolite 6-phospho-D-gluconate, log2 fold change): -0.2800 | Log2(fold change) HVDD ([4]; metabolite HVDD): 0.0000 | Log2(fold change) Hydroxyisocaproic acid ([4]; metabolite Hydroxyisocaproic acid): 0.0000 | Log2(fold change) IDP ([4]; metabolite IDP): 0.0000 | Log2(fold change) IMP ([4]; metabolite IMP): 0.3800 | Log2(fold change) Inositol ([4]; metabolite Inositol): 0.0000 | Log2(fold change) Isopentyl-PP ([4]; metabolite Isopentyl-PP): 0.0000 | Log2(fold change) L-arginino-succinate ([4]; metabolite L-arginino-succinate): 0.0000 | Log2(fold change) LD ([4]; metabolite LD): -1.3200 | Log2(fold change) Myristoyl/tetradecanoyl-CoA ([4]; metabolite Myristoyl/tetradecanoyl-CoA): 0.0000 | Log2(fold change) N-Acetyl-L-alanine ([4]; metabolite N-Acetyl-L-alanine): -1.4200 | Log2(fold change) N-acetyl-L-ornithine ([4]; metabolite N-acetyl-L-ornithine): -1.2700 | Log2(fold change) N-acetyl-glucosamine-1/6-phosphate ([4]; metabolite N-acetyl-glucosamine-1/6-phosphate): -0.2300 | Log2(fold change) N-acetyl-glutamate ([4]; metabolite N-acetyl-glutamate): -0.2700 | Log2(fold change) N-acetyl-glutamine ([4]; metabolite N-acetyl-glutamine): -0.4300 | Log2(fold change) N-carbamoyl-L-aspartate ([4]; metabolite N-carbamoyl-L-aspartate): -4.5700 | Log2(fold change) NAD+ ([4]; metabolite NAD+): -0.4000 | Log2(fold change) NADH ([4]; metabolite NADH): 0.0300 | Log2(fold change) NADP+ ([4]; metabolite NADP+): -0.1200 | Log2(fold change) NADPH ([4]; metabolite NADPH): 0.3500 | Log2(fold change) O-acetyl-L-serine ([4]; metabolite O-acetyl-L-serine): 0.0000 | Log2(fold change) Octoluse 8/1P ([4]; metabolite Octoluse 8/1P): -0.7200 | Log2(fold change) Octoluse Bisphosphate ([4]; metabolite Octoluse Bisphosphate): -1.2000 | Log2(fold change) PD ([4]; metabolite PD): -1.2400 | Log2(fold change) PE ([4]; metabolite PE): -3.4900 | Log2(fold change) PEE ([4]; metabolite PEE): -5.3200 | Log2(fold change) PEEK ([4]; metabolite PEEK): -1.5400 | Log2(fold change) PVNF ([4]; metabolite PVNF): -2.0700 | Log2(fold change) Pyroglutamic acid ([4]; metabolite Pyroglutamic acid): -0.0600 | Log2(fold change) Pyrophosphate ([4]; metabolite Pyrophosphate): -3.3800 | Log2(fold change) Ribose-5-phosphate ([4]; metabolite Ribose-5-phosphate): 0.0000 | Log2(fold change) S-adenosyl-L-homocysteine ([4]; metabolite S-adenosyl-L-homocysteine): -1.6400 | Log2(fold change) S-adenosyl-L-methioninamine ([4]; metabolite S-adenosyl-L-methioninamine): 0.0000 | Log2(fold change) S-adenosyl-L-methionine ([4]; metabolite S-adenosyl-L-methionine): 0.0000 | Log2(fold change) S-methyl-5'-thioadenosine ([4]; metabolite S-methyl-5'-thioadenosine): -0.5300 | Log2(fold change) SD ([4]; metabolite SD): -3.7000 | Log2(fold change) SDL ([4]; metabolite SDL): 0.0000 | Log2(fold change) SID ([4]; metabolite SID): 0.0000 | Log2(fold change) Sedoheptulose bisphosphate ([4]; metabolite Sedoheptulose bisphosphate): -1.3400 | Log2(fold change) Thiamine pyrophosphate ([4]; metabolite Thiamine pyrophosphate): 0.0000 | Log2(fold changes) UDP-D-glucose ([4]; metabolite UDP-D-glucose, log2 fold change): -0.2000 | Log2(fold changes) UDP-D-glucuronate ([4]; metabolite UDP-D-glucuronate, log2 fold change): -0.3600 | Log2(fold changes) UDP-N-acetyl-glucosamine ([4]; metabolite UDP-N-acetyl-glucosamine, log2 fold change): 0.0300 | Log2(fold changes) UDP ([4]; metabolite UDP, log2 fold change): -0.9600 | Log2(fold changes) UMP ([4]; metabolite UMP, log2 fold change): -0.3800 | Log2(fold changes) UTP ([4]; metabolite UTP, log2 fold change): -2.0500 | Log2(fold change) hydroxyphenylpyruvate ([4]; metabolite hydroxyphenylpyruvate): 0.0000 | Log2(fold change) hydroxyproline/Aminolevulinate ([4]; metabolite hydroxyproline/Aminolevulinate): 0.0000 | Log2(fold change) hypoxanthine ([4]; metabolite hypoxanthine): 0.2700 | Log2(fold change) indole ([4]; metabolite indole): 0.1700 | Log2(fold change) inosine ([4]; metabolite inosine): 0.1600 | Log2(fold change) isoleucine ([4]; metabolite isoleucine): 0.0000 | Log2(fold change) lactate ([4]; metabolite lactate): -1.3100 | Log2(fold change) leucine ([4]; metabolite leucine): 0.0000 | Log2(fold change) lysine ([4]; metabolite lysine): 0.0000 | Log2(fold change) malate ([4]; metabolite malate): -0.0600 | Log2(fold change) maleic acid ([4]; metabolite maleic acid): 0.0000 | Log2(fold change) methionine ([4]; metabolite methionine): 0.0000 | Log2(fold change) myo-inositol ([4]; metabolite myo-inositol): -3.2700 | Log2(fold change) nicotinamide mononucleotide ([4]; metabolite nicotinamide mononucleotide): 0.0000 | Log2(fold change) nicotinate ([4]; metabolite nicotinate): 0.7800 | Log2(fold change) ornithine ([4]; metabolite ornithine): -0.1500 | Log2(fold change) orotate ([4]; metabolite orotate): 0.9100 | Log2(fold change) orotidine-5'-phosphate ([4]; metabolite orotidine-5'-phosphate): 0.0000 | Log2(fold change) oxaloacetate ([4]; metabolite oxaloacetate): 0.0000 | Log2(fold change) p-aminobenzoate ([4]; metabolite p-aminobenzoate): 0.0000 | Log2(fold change) p-hydroxybenzoate ([4]; metabolite p-hydroxybenzoate): 0.5800 | Log2(fold change) pantothenate ([4]; metabolite pantothenate): 0.0000 | Log2(fold change) phenylalanine ([4]; metabolite phenylalanine): 0.0000 | Log2(fold change) phenylpyruvate ([4]; metabolite phenylpyruvate): -0.7100 | Log2(fold change) phosphoenolpyruvate ([4]; metabolite phosphoenolpyruvate): 0.4500 | Log2(fold change) prephenate ([4]; metabolite prephenate): 0.0000 | Log2(fold change) proline ([4]; metabolite proline): 0.0000 | Log2(fold change) pyridoxine ([4]; metabolite pyridoxine): 0.0000 | Log2(fold change) pyruvate ([4]; metabolite pyruvate): -1.3400 | Log2(fold change) riboflavin ([4]; metabolite riboflavin): 0.0000 | Log2(fold change) ribose ([4]; metabolite ribose): 0.0000 | Log2(fold change) ribose-phosphate ([4]; metabolite ribose-phosphate): -0.5600 | Log2(fold change) ribulose-5-phosphate ([4]; metabolite ribulose-5-phosphate): 0.0000 | Log2(fold change) serine ([4]; metabolite serine): 0.0000 | Log2(fold change) sn-glycerol-3-phosphate ([4]; metabolite sn-glycerol-3-phosphate): 0.6100 | Log2(fold change) succinate/Methylmalonic acid ([4]; metabolite succinate/Methylmalonic acid): 0.1400 | Log2(fold change) succinyl-CoA/methylmalonyl-CoA ([4]; metabolite succinyl-CoA/methylmalonyl-CoA): 0.0000 | Log2(fold change) taurine ([4]; metabolite taurine): 0.0000 | Log2(fold change) thiamine ([4]; metabolite thiamine): 0.0000 | Log2(fold change) threonine/homoserine ([4]; metabolite threonine/homoserine): 0.0000 | Log2(fold change) thymidine ([4]; metabolite thymidine): 0.7900 | Log2(fold changes) thymine ([4]; metabolite thymine, log2 fold change): -0.5500 | Log2(fold changes) trehalose-6-Phosphate ([4]; metabolite trehalose-6-Phosphate, log2 fold change): 0.0000 | Log2(fold changes) tryptophan ([4]; metabolite tryptophan, log2 fold change): 0.0000 | Log2(fold changes) tyrosine ([4]; metabolite tyrosine, log2 fold change): 0.0000 | Log2(fold changes) uridine ([4]; metabolite uridine, log2 fold change): -0.4400
